# Assay results reported in patent US8183234B2, “Tricyclic guanidine derivatives as sodium-proton exchange inhibitors” (Piramal Life Sciences Limited, priority 2004, dated 2012).
# Counter-ions that a name gives are not always drawn.
row,melting point,Structure (SMILES)
1,276 °C,"CS(=O)(=O)O.CS(=O)(=O)O.CS(=O)(=O)O.Cc1cc(C(=O)NC(=N)N)cc2c1Oc1c(Cl)cc(N(CCN3CCCCC3)C(=O)C3CC3)cc1CS2(=O)=O [Example 95, Cyclopropanecarboxylic acid (4-chloro-8-guanidinocarbonyl-6-methyl-10,10-dioxo-10,11-dihydro-5-oxa-10lambda*6*-thia-dibenzo[a,d]cycloheptene-2-yl)-(2-piperidin-1-yl-ethyl)-amide trimesylate]"
2,185 to 187 °C,"CS(=O)(=O)O.CS(=O)(=O)O.Cc1cc(C(=O)NC(=N)N)cc2c1Oc1c(Cl)cc(N3CCN(CCO)CC3)cc1CS2(=O)=O [Example 197, N-{4-Chloro-2-[4-(2-hydroxy-ethyl)-piperazin-1-yl]-6-methyl-10,10-dioxo-10,11-dihydro-5-oxa-10lambda*6*-thia-dibenzo[a,d]cycloheptene-8-carbonyl}-guanidine dimesylate]"
3,128 to 130 °C,"CC(=O)N(CCN(C)C)c1cc(Cl)c2c(c1)CS(=O)(=O)c1cc(C(=O)NC(=N)N)cc(C)c1O2.CS(=O)(=O)O.CS(=O)(=O)O.CS(=O)(=O)O [Example 100, N-(4-Chloro-8-guanidinocarbonyl-6-methyl-10,10-dioxo-10,11-dihydro-5-oxa-10lambda*6*-thia-dibenzo[a,d]cyclohepten-2-yl)-N-(2-dimethylamino-ethyl)-acetamide trimesylate]"
4,248 to 250 °C,"CCN(CCN1CCOCC1)c1cc(Cl)c2c(c1)CS(=O)(=O)c1cc(C(=O)NC(=N)N)cc(C)c1O2.CS(=O)(=O)O.CS(=O)(=O)O [Example 67, N-{4-Chloro-2-[ethyl-(2-morpholin-4-yl-ethyl)-amino]-6-methyl-10,10-dioxo-10,11-dihydro-5-oxa-10lambda*6*-thia-dibenzo[a,d]cycloheptene-8-carbonyl}-guanidine dimesylate]"
5,198 to 200 °C,"CC(=O)N(CCN1CCOCC1)c1cc(Cl)c2c(c1)CS(=O)(=O)c1cc(C(=O)NC(=N)N)cc(C)c1O2.CS(=O)(=O)O.CS(=O)(=O)O [Example 68, N-(4-Chloro-8-guanidinocarbonyl-6-methyl-10,10-dioxo-10,11-dihydro-5-oxa-10lambda*6*-thia-dibenzo[a,d]cyclohepten-2-yl)-N-(2-morpholin-4-yl-ethyl)-acetamide dimesylate]"
6,190 to 192 °C,"CS(=O)(=O)O.CS(=O)(=O)O.Cc1cc(C(=O)NC(=N)N)cc2c1Oc1c(Cl)cc(NC(=O)CN3CCCC3)cc1CS2(=O)=O [Example 147, N-(4-Chloro-8-guanidinocarbonyl-6-methyl-10,10-dioxo-10,11-dihydro-5-oxa-10lambda*6*-thia-dibenzo[a,d]-cyclohepten-2-yl)-2-pyrrolidine-1-yl-acetamide dimesylate]"
7,292 to 293 °C,"CS(=O)(=O)O.Cc1cc(C(=O)NC(=N)N)cc2c1Oc1c(Cl)cc(S(=O)(=O)N3CCOCC3)cc1CS2(=O)=O [Example 55, N-[4-chloro-6-methyl-2-(morpholine-4-sulfonyl)-10,10-dioxo-10,11-dihydro-5-oxa-10 lambda*6*-thia-dibenzo[a,d]cycloheptene-8-carbonyl]-guanidine methane sulfonic acid salt]"

# Second part, the molecule before the results:
row,Structure (SMILES),melting point
1,"CS(=O)(=O)O.CS(=O)(=O)O.Cc1cc(C(=O)NC(=N)N)cc2c1Oc1c(Cl)cc(NC(=O)CN(C)C)cc1CS2(=O)=O [Example 142, N-(4-Chloro-8-guanidinocarbonyl-6-methyl-10,10-dioxo-10,11-dihydro-5-oxa-10lambda*6*-thia-dibenzo[a,d]cyclohepten-2-yl)-2-dimethylamino-acetamide dimesylate]",190 to 191 °C
2,"CS(=O)(=O)O.CS(=O)(=O)O.CS(=O)(=O)O.CS(=O)(=O)O.Cc1cc(C(=O)NC(=N)N)cc2c1Oc1c(Cl)cc(N3CCN(CCN4CCNCC4)CC3)cc1CS2(=O)=O [Example 124, N-{4-Chloro-6-methyl-10,10-dioxo-2-[4-(2-piperazin-1-yl-ethyl)-piperazin-1-yl)-10,11-dihydro-5-oxa-10lambda*6*-thia-dibenzo[a,d]cycloheptene-8-carbonyl}-guanidine tetramesylate]",182 to 184 °C
3,"CS(=O)(=O)O.Cc1cc(C(=O)NC(=N)N)cc2c1Oc1c(Cl)cc(NC(=O)CO)cc1CS2(=O)=O [Example 136, N-(4-Chloro-8-guanidinocarbonyl-6-methyl-10,10-dioxo-10,11-dihydro-5-oxa-10lambda*6*-thia-dibenzo[a,d]cycloheptene-2-yl)-2-hydroxy-acetamide methane sulfonic acid salt]",180 to 182 °C
4,"CS(=O)(=O)O.CS(=O)(=O)O.Cc1cc(C(=O)NC(=N)N)cc2c1Oc1c(Cl)cc(N(CCN(C)C)C(=O)C(C)(C)C)cc1CS2(=O)=O [Example 101, N-(4-Chloro-8-guanidinocarbonyl-6-methyl-10,10-dioxo-10,11-dihydro-5-oxa-10lambda*6*-thia-dibenzo[a,d]cyclohepten-2-yl)-N-(2-dimethylamino-ethyl)-2,2-dimethyl-propionamide dimesylate]",171 to 173 °C
5,"CS(=O)(=O)O.CS(=O)(=O)O.Cc1cc(C(=O)NC(=N)N)cc2c1Oc1c(Cl)cc(NC(=O)CNC3CC3)cc1CS2(=O)=O [Example 138, N-(4-Chloro-8-guanidinocarbonyl-6-methyl-10,10-dioxo-10,11-dihydro-5-oxa-10lambda*6*-thia-dibenzo[a,d]cyclohepten-2-yl)-2-cyclopropylamino-acetamide dimesylate]",188 to 190 °C
6,"CS(=O)(=O)O.CS(=O)(=O)O.Cc1cc(C(=O)NC(=N)N)cc2c1Oc1c(Cl)cc(NCCNCc3ccccc3)cc1CS2(=O)=O [Example 88, N-[2-(2-Benzylamino-ethylamino)-4-chloro-6-methyl-10,10-dioxo-10,11-dihydro-5-oxa-10lambda*6*-thia-dibenzo[a,d]cycloheptene-8-carbonyl]-guanidine dimesylate]",232 to 233 °C
7,"Cc1cc(C(=O)N=C(N)N)cc2c1Oc1c(Cl)cc(N3CCN(Cc4ccccc4)CC3)cc1CS2(=O)=O (as salt: mesylate) [Example 118, N-[2-(4-Benzyl-piperazin-1-yl)-4-chloro-6-methyl-10,10-dioxo-10,11-dihydro-5-oxa-10lambda*6*-thia-dibenzo[a,d]cycloheptene-8-carbonyl]-guanidine dimesylate]",280 to 285 °C
8,"CS(=O)(=O)O.CS(=O)(=O)O.Cc1cc(C(=O)NC(=N)N)cc2c1Oc1c(Cl)cc(N3CCN(C4CC4)CC3)cc1CS2(=O)=O [Example 125, N-[4-Chloro-2-(4-cyclopropyl-piperazin-1-yl)-6-methyl-10,10-dioxo-10,11-dihydro-5-oxa-10lambda*6*-thia-dibenzo[a,d]cycloheptene-8-carbonyl]-guanidine dimesylate]",245 to 248 °C
9,"Cc1cc(C(=O)N=C(N)N)cc2c1Oc1c(Cl)cc(N3CCN(C4CC4)CC3=O)cc1CS2(=O)=O (as salt: mesylate) [Example 58, N-[4-Chloro-2-(4-cyclopropyl-2-oxo-piperazin-1-yl)-6-methyl-10,10-dioxo-10,11-dihydro-5-oxa-10lambda*6*-thia-dibenzo[a,d]cycloheptene-8-carbonyl]-guanidine dimesylate]",195 to 196 °C
10,"CC(C)c1cccc2c1Oc1ccc(C(=O)NC(=N)N)cc1S(=O)(=O)C2.CS(=O)(=O)O [Example 8, N-(4-Isopropyl-10,10-dioxo-10,11-dihydro-5-oxa-10lambda*6*-thia-dibenzo[a,d]cycloheptene-8-carbonyl)-guanidine, methanesulfonic acid salt]",220 to 222 °C
11,"CS(=O)(=O)O.CS(=O)(=O)O.Cc1cc(C(=O)NC(=N)N)cc2c1Oc1c(N)cccc1CS2(=O)=O [Example 159, N-[4-Amino-6-methyl-10,10-dioxo-10,11-dihydro-5-oxa-10lambda*6*-thia-dibenzo[a,d]cycloheptene-8-carbonyl)-guanidine dimesylate]",255 to 257 °C
12,"CS(=O)(=O)O.CS(=O)(=O)O.Cc1cc(C(=O)NC(=N)N)cc2c1Oc1c(Cl)cc(NC(=O)CNC3CCC3)cc1CS2(=O)=O [Example 143, N-(4-Chloro-8-guanidinocarbonyl-6-methyl-10,10-dioxo-10,11-dihydro-5-oxa-10lambda*6*-thia-dibenzo[a,d]cycloheptene-2-yl)-2-cyclobutylamino-acetamide dimesylate]",190 to 192 °C
13,"CS(=O)(=O)O.CS(=O)(=O)O.CS(=O)(=O)O.Cc1cc(C(=O)NC(=N)N)cc2c1Oc1c(Cl)cc(N3CCN(Cc4cccnc4)CC3)cc1CS2(=O)=O [Example 128, N-[4-Chloro-6-methyl-10,10-dioxo-2-(4-pyridin-3-ylmethyl-piperazin-1-yl)-10,11-dihydro-5-oxa-10lambda*6*-thia-dibenzo[a,d]cycloheptene-8-carbonyl]-guanidine trimesylate]",190 to 192 °C
14,"CS(=O)(=O)O.CS(=O)(=O)O.CS(=O)(=O)O.Cc1cc(C(=O)NC(=N)N)cc2c1Oc1c(Cl)cc(NCCN3CCN(C)CC3)cc1CS2(=O)=O [Example 62, N-{4-Chloro-6-methyl-2-[2-(4-methylpiperazin-1-yl)-ethylamino]-10,10-dioxo-10,11-dihydro-5-oxa-10lambda*6*-thia-dibenzo[a,d]cycloheptene-8-carbonyl}-guanidine trimesylate]",184 to 186 °C
15,"CS(=O)(=O)O.CS(=O)(=O)O.Cc1cc(C(=O)NC(=N)N)cc2c1Oc1c(Cl)cc(NC(=O)CNC3CCCCC3)cc1CS2(=O)=O [Example 139, N-(4-Chloro-8-guanidinocarbonyl-6-methyl-10,10-dioxo-10,11-dihydro-5-oxa-10lambda*6*-thia-dibenzo[a,d]cyclohepten-2-yl)-2-cyclohexylamino-acetamide dimesylate]",194 to 196 °C
16,"CS(=O)(=O)O.CS(=O)(=O)O.Cc1cc(C(=O)NC(=N)N)cc2c1Oc1c(Cl)cc(NC(=O)CNC(C)C)cc1CS2(=O)=O [Example 141, N-(4-Chloro-8-guanidinocarbonyl-6-methyl-10,10-dioxo-10,11-dihydro-5-oxa-10lambda*6*-thia-dibenzo[a,d]cyclohepten-2-yl)-2-isopropylamino-acetamide dimesylate]",192 to 194 °C
